Assay results taken from ChEMBL document CHEMBL1142452, “Pyrazolidine-3,5-dione derivatives as potent non-steroidal agonists of farnesoid X receptor: virtual screening, synthesis, and biological evaluation” (Bioorg Med Chem Lett, 2008).
Calls of active or inactive are those of the source. The rule behind the calls is not given here.

What was measured:
[1] = target: T1, Bile acid receptor (Homo sapiens, UniProt Q96RI1); assay: Agonist activity at FXR assessed as activation by cell based luciferase transactivation assay; format: functional
T1 sequence (Q96RI1 whole entry): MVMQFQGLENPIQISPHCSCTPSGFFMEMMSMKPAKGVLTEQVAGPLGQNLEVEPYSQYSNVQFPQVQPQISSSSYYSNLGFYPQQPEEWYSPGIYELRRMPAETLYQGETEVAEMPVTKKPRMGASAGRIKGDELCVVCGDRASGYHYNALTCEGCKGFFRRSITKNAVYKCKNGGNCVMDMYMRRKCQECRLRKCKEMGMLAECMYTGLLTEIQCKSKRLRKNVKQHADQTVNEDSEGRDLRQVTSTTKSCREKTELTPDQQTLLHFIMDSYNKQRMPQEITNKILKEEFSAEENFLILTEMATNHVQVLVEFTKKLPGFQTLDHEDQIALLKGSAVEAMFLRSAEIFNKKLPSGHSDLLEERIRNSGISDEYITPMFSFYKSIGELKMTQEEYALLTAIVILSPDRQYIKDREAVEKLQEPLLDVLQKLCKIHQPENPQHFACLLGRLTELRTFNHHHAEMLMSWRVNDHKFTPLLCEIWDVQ

[2] = target: T2, Bile acid receptor (Homo sapiens) (UniProt Q96RI1); assay: Agonist activity at FXR assessed as activation by cell based luciferase transactivation assay at less than 5 uM; format: functional
T2 sequence (whole entry): T1 sequence (Q96RI1 whole entry)

Cc1cccc(COc2cccc(/C=C3\C(=O)NN(c4ccccc4[N+](=O)[O-])C3=O)c2)c1
EC50 [1]: 5.37 µM

O=C1NN(c2ccccc2)C(=O)/C1=C/c1cccc(OCc2ccc(C(F)(F)F)cc2)c1
EC50 [1]: 2.04 µM | Activity [2]: Active

Cc1cccc(COc2cccc(/C=C3\C(=O)NN(c4ccccc4)C3=O)c2)c1
EC50 [1]: 5.15 µM

O=C1NN(C(=O)c2ccco2)C(=O)/C1=C/c1ccc(OCc2ccccc2)cc1
EC50 [1]: 3.31 µM

O=C1C(=Cc2cccc([N+](=O)[O-])c2)C(=O)N(c2ccccc2)N1c1ccccc1
EC50 [1]: 4.27 µM

Cc1cccc(COc2cccc(/C=C3\C(=O)NN(C(=O)c4ccncc4)C3=O)c2)c1
EC50 [1]: 2.4 µM | Activity [2]: Active

O=C1NN(c2ccccc2)C(=O)/C1=C/c1cccc(OCc2cccc(C(F)(F)F)c2)c1
EC50 [1]: 6.92 µM

Cc1cccc(COc2cccc(/C=C3\C(=O)NN(C(=O)c4ccc(F)cc4)C3=O)c2)c1
EC50 [1]: 1.86 µM | Activity [2]: Active

O=C1NN(c2ccccc2)C(=O)/C1=C/c1cccc(OCc2cccc(F)c2)c1
EC50 [1]: 4.79 µM

O=C1C(=Cc2ccc(OCc3ccccc3)cc2)C(=O)N(c2ccccc2)N1c1ccccc1
EC50 [1]: 6.31 µM | Activity [2]: Active

O=C1NN(C(=O)c2ccccc2)C(=O)/C1=C/c1ccc(OCc2ccccc2)cc1
EC50 [1]: 3.98 µM

CCOC(=O)C(=Cc1ccc(OCc2ccccc2)cc1)C(=O)OCC
EC50 [1]: 6.17 µM
